Results taken from patent US20130210907A1, “METHOD FOR PREVENTING OR TREATING ENTEROCHROMAFFIN CELL HYPERPLASIA-RELATED DISEASES BY QUERCETIN ADMINISTRATION” (HONG KONG BAPTIST UNIVERSITY, priority 2012, published 2013).

Test system: normal rats
Test: Pain threshold pressure in normal rats
Type: in vivo, rat
Details: 10 mg/kg i.g., 14 days
Experimental: AWR test is performed as previously described in Al-Chaer E D, Kawasaki M, Pasricha P J. A new model of chronic visceral hypersensitivity in adult rats induced by colon irritation during postnatal development. Gastroenterology. 2000 November; 119(5):1276-85. Briefly, rats are lightly anesthetized with ether; a latex balloon is inserted into the descending colon. Rats are then allowed to recover for about 1 h. The tube of the balloon is connected via a Y-connector to a sphygmomanometer and colorectal distension is applied in increments of 5 mmHg until a visible contraction of the abdominal wall is observed by an investigator blinded to the treatment. […] The pain threshold pressure of all groups is recorded and repeated five times with intervals of at least 5 minutes for recovery. […] The changes of area under the curve (AUC) are calculated using that during 20 s distension period over the 20 s baseline.
To identify whether the effects of Quercerin in PI-IBS rats are specific, pain threshold pressure, colonic EC cell number and 5-HT content are further evaluated in normal rats treated with Quercetin. […] After the final drug administration, pain threshold pressure, colonic EC cell density and 5-HT content are evaluated and the methods used here are as same as that shown in above experiments.

`O=c1c(O)c(-c2ccc(O)c(O)c2)oc2cc(O)cc(O)c12` [Quercetin, 2-(3,4-dihydroxyphenyl)-3,5,7-trihydroxy-4H-chromen-4-one] showed a Pain threshold pressure of 37.9 ± 1.7 mmHg.
